Test results taken from patent US20100009956A1, “NOVEL SUBSTITUTED PYRIMIDINES AS CYSTEINE PROTEASE INHIBITORS” (Glaxo Group Limited , a corporation, priority 2006, published 2010).
Where a name gives a salt, the structure may show the parent alone. Read-outs that look alike come from different tables or passages of the source.

Legend:
Assay type in all cases: biochemical
[1] = target: T1, Cathepsin K (Homo sapiens, UniProt P43235); experiment: Cathepsin K enzymatic assay (assay 1); settings: human recombinant enzyme, Z-FR-AFC substrate, pH 5.5
T1 sequence (P43235 115-329): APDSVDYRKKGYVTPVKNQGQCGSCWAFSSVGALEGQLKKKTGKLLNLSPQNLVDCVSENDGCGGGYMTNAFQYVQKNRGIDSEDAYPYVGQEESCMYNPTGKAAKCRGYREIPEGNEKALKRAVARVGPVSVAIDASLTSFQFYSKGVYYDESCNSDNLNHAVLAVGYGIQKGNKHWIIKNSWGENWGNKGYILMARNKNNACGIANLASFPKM
Experimental: (§1) Assay 1) Determination of Falcipain-2, Falcipain-3, Vivapain-2, Cathepsin K Cathepsin S, Cathepsin L, and Cathepsin B Proteolytic Catalytic Activity
(§2) Assays for Falcipain-2, Falcipain-3, and Vivapain-2 are carried out with parasitic recombinant enzymes. Cathepsins K, S, L, and B are carried out with human recombinant enzymes. Standard assay conditions for the determination of kinetic constants used a fluorogenic peptide substrate, typically H-D-VLR-AFC (Falcipain-2, Falcipain-3, Vivapain-2), Z-FR-AFC (Cathepsin K, L, B), or KQKLR-AMC (Cathepsin S) and are determined in 100 mM sodium acetate, pH 5.5, containing 10 mM DTT and 0.5 mM CHAPS (Falcipain-2, Falcipain-3, Vivapain-2), and 100 mM sodium acetate, pH 5.5, containing 5 mM L-cysteine, 1 mM CHAPS and 5 mM EDTA (Cathepsin K, L, B), or 50 mM MES, pH 6.5, containing 0.5 mM CHAPS, 10 mM L-CYS, 5 mM EDTA (Cathepsin S). Stock substrate solutions are prepared at 20 mM in DMSO. The activity assays contained 30 uM substrate (Falcipain-2, Falcipain-3, Vivapain-2), 20 uM substrate (Cathepsin K), 25 uM substrate (Cathepsin B), 5 uM substrate (Cathepsin L), and 30 uM substrate (Cathepsin S). All assays contained 1% DMSO. […] All assays are conducted at ambient temperature as end point assays being quenched after 60 minutes with the exception of Cathepsin S at 90 minutes, with 16.6 uM E-64 in 1% DMSO. Product formation (AFC or AMC) is determined from fluorescence (excitation at 405 nm; emission at 530 nm, AFC, or excitation at 360 nm; emission at 460 nm, AMC) monitored with a LJL Aquest (Molecular Devices) fluorescent plate reader. In the case of kinetic reads (used in mechanism of action studies), the reaction is not quenched but is read in the plate reader every 3 minutes for approximately 90 minutes. In addition, the mechanism of action studies for Falcipain-2 utilize Z-LR-AMC as the substrate. Product formation is determined from the fluorescence of AMC, measured with a LJL Acquest (Molecular Devices) fluorescent plate reader (excitation at 360 nm; emission at 460 nm).
(§3) Potential inhibitors are evaluated using the quenched read (endpoint) method. Assays are carried out in the presence of variable concentrations of test compound. Reactions are initiated by addition of enzyme and substrate to wells containing inhibitor stamped in 100% DMSO. For endpoint assays, the reaction is quenched with the addition of E64. Dose response data is fit to an IC50 curve with preset fitting tools according to equation 1:
(§4) y=a+(b−a)/(1+(10^x/10^c)^d) (1)
(§5) where y is the response at a particular inhibitor concentration x, a is the minimum response value, b is the maximum response value, c is the IC50, and d is the slope of the IC50 curve. Assuming the compound is a competitive inhibitor, the apparent KI can be calculated from IC50, as shown in equation 2: […]

[2] = target: Falcipain-3 (Plasmodium falciparum, UniProt Q8IIL0); experiment: Falcipain-3 enzymatic assay (assay 1)
Chain of Falcipain-3 (Q8IIL0 243-492): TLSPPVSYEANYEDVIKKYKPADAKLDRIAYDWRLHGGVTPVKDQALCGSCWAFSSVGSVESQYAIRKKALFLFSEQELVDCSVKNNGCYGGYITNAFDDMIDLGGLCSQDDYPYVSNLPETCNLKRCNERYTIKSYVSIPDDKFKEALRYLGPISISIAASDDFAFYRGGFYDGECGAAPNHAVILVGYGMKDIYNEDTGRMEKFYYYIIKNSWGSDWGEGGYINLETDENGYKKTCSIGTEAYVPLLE
Experimental: as §1, §2, §3, §4, §5

[3] = target: Falcipain-2 (Plasmodium falciparum, UniProt Q8I6U4); experiment: Falcipain-2 enzymatic assay (assay 1)
Chain of Falcipain-2 (Q8I6U4 244-484): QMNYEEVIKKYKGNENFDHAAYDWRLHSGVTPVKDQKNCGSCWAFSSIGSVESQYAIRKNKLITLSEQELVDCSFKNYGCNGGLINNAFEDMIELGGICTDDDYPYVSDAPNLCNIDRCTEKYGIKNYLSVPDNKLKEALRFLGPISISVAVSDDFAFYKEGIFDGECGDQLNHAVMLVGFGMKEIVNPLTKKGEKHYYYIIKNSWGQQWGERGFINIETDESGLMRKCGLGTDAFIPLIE
Experimental: as §1, §2, §3, §4, §5

Row | SMILES | IC50 [1] [nM] | IC50 [2] [nM] | IC50 [3] [nM] | IC50 ([3]; parasitic recombinant enzyme, H-D-VLR-AFC substrate, pH 5.5, endpoint read, read-out: Falcipain-2 IC50) [nM] | IC50 ([2]; parasitic recombinant enzyme, H-D-VLR-AFC substrate, pH 5.5, endpoint read, read-out: Falcipain-3 IC50) [nM]
1 | N#Cc1ncc(Br)c(N(NC(=O)c2ccc(CN3CCC(O)CC3)cc2)C2CCCCC2)n1 [Example 21, N′-(5-bromo-2-cyano-4-pyrimidinyl)-N′-cyclohexyl-4-[(4-hydroxy-1-piperidinyl)methyl]benzohydrazide trifluoroacetate] | < 1.5 | 2.5 to 15 | < 1 |  | 
2 | N#Cc1ncc(Br)c(N(NC(=O)c2cccc(CN3CCC(N4CCOCC4)CC3)c2)C2CCCCC2)n1 [Example 24, N′-(5-bromo-2-cyano-4-pyrimidinyl)-N′-cyclohexyl-3-{[4-(4-morpholinyl)-1-piperidinyl]methyl}benzohydrazide trifluoroacetate] | < 1.5 | 2.5 to 15 | < 1 |  | 
3 | C[C@H]1CCC[C@H]1N(NC(=O)c1ccc(CN2CCN(C)CC2)cc1)c1nc(C#N)ncc1Br [Example 2, N′-(5-bromo-2-cyano-4-pyrimidinyl)-N′-[(1 R,2S+1S,2R)-2-methylcyclopentyl]-4-[(4-methyl-1-piperazinyl)methyl]benzohydrazide trifluoroacetate] | < 17 | 15 to 150 | 1 to 2.5 |  | 
4 | CN1CCN(C(=O)C2CCN(Cc3cccc(C(=O)NN(c4nc(C#N)ncc4Br)C4CCCCC4)c3)CC2)CC1 [Example 23, N′-(5-bromo-2-cyano-4-pyrimidinyl)-N′-cyclohexyl-3-({4-[(4-methyl-1-piperazinyl)carbonyl]-1-piperidinyl}methyl)benzohydrazide trifluoroacetate] | < 1.5 | 2.5 to 15 | < 1 |  | 
5 | CN1CCN(C(=O)C2CCN(Cc3ccc(C(=O)NN(c4nc(C#N)ncc4Br)C4CCOCC4)cc3)CC2)CC1 [Example 32, N′-(5—Bromo-2-cyano-4-pyrimidinyl)-4-({4-[(4-methyl-1-piperazinyl)carbonyl]-1-piperidinyl}methyl)-N′-(tetrahydro-2H-pyran-4-yl)benzohydrazide trifluoroacetate] | < 17 | 2.5 to 15 | < 1 |  | 
6 | CN1CCCC(CN2CCN(Cc3ccc(C(=O)NN(c4nc(C#N)ncc4Br)C4CCOCC4)cc3)CC2)C1 (stereo not drawn) [Example 31, N′-(5—Bromo-2-cyano-4-pyrimidinyl)-4-({4-[(1-methyl-3-piperidinyl)methyl]-1-piperazinyl}methyl)-N′-(tetrahydro-2H-pyran-4-yl)benzohydrazide trifluoroacetate] | < 17 | 15 to 150 | < 1 |  | 
7 | CN1CCN(C(=O)C2CCN(Cc3ccc(C(=O)NN(c4nc(C#N)ncc4Cl)C4CCOCC4)cc3)CC2)CC1 [Example 36, N′-(5-Chloro-2-cyano-4-pyrimidinyl)-4-({4-[(4-methyl-1-piperazinyl)carbonyl]-1-piperidinyl}methyl)-N′-(tetrahydro-2H-pyran-4-yl)benzohydrazide trifluoroacetate] | < 17 | 15 to 150 |  | < 1 | 
8 | CN1CCCC(CN2CCN(Cc3ccc(C(=O)NN(c4nc(C#N)ncc4Br)C4CCCCC4)cc3)CC2)C1 (stereo not drawn) [Example 25, N′-(5-bromo-2-cyano-4-pyrimidinyl)-N′-cyclohexyl-4-({4-[(-methyl-3-piperidinyl)methyl]-1-piperazinyl}methyl)benzohydrazide trifluoroacetate] | < 1.5 | 2.5 to 15 | < 1 |  | 
9 | CN1CCN(C2CCN(Cc3ccc(C(=O)NN(c4nc(C#N)ncc4Br)C4CCCC4)cc3)CC2)CC1 [Example 10, N′-(5-bromo-2-cyano-4-pyrimidinyl)-N′-cyclopentyl-4-{[4-(4-methyl-1-piperazinyl)-1-piperidinyl]methyl}benzohydrazide trifluoroacetate] | < 1.5 | 2.5 to 15 | < 1 |  | 
10 | CN1CCN(C(=O)C2CCN(Cc3ccc(C(=O)NN(c4nc(C#N)ncc4Br)C4CCCCC4)cc3)CC2)CC1 [Example 22, N′-(5-bromo-2-cyano-4-pyrimidinyl)-N′-cyclohexyl-4-({4-[(4-methyl-1-piperazinyl)carbonyl]-1-piperidinyl}methyl)benzohydrazide trifluoroacetate] | < 1.5 | 2.5 to 15 | < 1 |  | 
11 | CN1CCN(C(=O)C2CCN(Cc3ccc(C(=O)NN(c4nc(C#N)ncc4Br)C4CCCC4)cc3)CC2)CC1 [Example 9, N′-(5-bromo-2-cyano-4-pyrimidinyl)-N′-cyclopentyl-4-({4-[(4-methyl-1-piperazinyl)carbonyl]-1-piperidinyl}methyl)benzohydrazide trifluoroacetate] | < 1.5 | 2.5 to 15 | < 1 |  | 
12 | CN1CCCC(CN2CCN(Cc3cccc(C(=O)NN(c4nc(C#N)ncc4Br)C4CCCC4)c3)CC2)C1 (stereo not drawn) [Example 14, N′-(5-bromo-2-cyano-4-pyrimidinyl)-N′-cyclopentyl-3-({4-[(1-methyl-3-piperidinyl)methyl]-1-piperazinyl}methyl)benzohydrazide trifluoroacetate] | < 1.5 | 2.5 to 15 | < 1 |  | 
13 | CN1CCN(C(=O)C2CCN(Cc3cccc(C(=O)NN(c4nc(C#N)ncc4Br)C4CCCC4)c3)CC2)CC1 [Example 12, N′-(5-bromo-2-cyano-4-pyrimidinyl)-N′-cyclopentyl-3-({4-[(4-methyl-1-piperazinyl)carbonyl]-1-piperidinyl}methyl)benzohydrazide trifluoroacetate] | < 1.5 | 2.5 to 15 | < 1 |  | 
14 | N#Cc1ncc(Br)c(N(NC(=O)c2ccc(CN3CCC(N4CCOCC4)CC3)cc2)C2CCCCC2)n1 [Example 18, N′-(5-bromo-2-cyano-4-pyrimidinyl)-N′-cyclohexyl-4-{([4-(4-morpholinyl)-1-piperidinyl]methyl}benzohydrazide trifluoroacetate] | < 1.5 | 2.5 to 15 | < 1 |  | 
15 | CN1CCC(CN2CCN(Cc3cccc(C(=O)NN(c4nc(C#N)ncc4Br)C4CCCC4)c3)CC2)CC1 [Example 15, N′-(5-bromo-2-cyano-4-pyrimidinyl)-N′-cyclopentyl-3-({4-[(1-methyl-4-piperidinyl)methyl]-1-piperazinyl}methyl)benzohydrazide trifluoroacetate] | < 1.5 |  | < 1 |  | 2.5 to 15
16 | CN1CCCC(CN2CCN(Cc3ccc(C(=O)NN(c4nc(C#N)ncc4Br)C4CCCC4)cc3)CC2)C1 (stereo not drawn) [Example 8, N′-(5-bromo-2-cyano-4-pyrimidinyl)-N′-cyclopentyl-4-({4-[(1-methyl-3-piperidinyl)methyl]-1-piperazinyl}methyl)benzohydrazide trifluoroacetate] | < 1.5 | 2.5 to 15 | < 1 |  | 
17 | C[C@@H]1CCC[C@H]1N(NC(=O)c1ccc(F)cc1)c1nc(C#N)ncc1Br (racemic) [Example 43, N′-(5-bromo-2-cyano-4-pyrimidinyl)-4-fluoro-N′-[(1R,2R+1S,2S))-2-methylcyclopentyl]benzohydrazide trifluoroacetate] | < 17 | 2.5 to 15 | < 1 |  | 
18 | CN1CCN(C2CCN(Cc3cccc(C(=O)NN(c4nc(C#N)ncc4Br)C4CCCC4)c3)CC2)CC1 [Example 11, N′-(5-bromo-2-cyano-4-pyrimidinyl)-N′-cyclopentyl-3-{[4-(4-methyl-1-piperazinyl)-1-piperidinyl]methyl}benzohydrazide trifluoroacetate] | < 1.5 | 2.5 to 15 | < 1 |  | 
